Where two headings read alike, the source gives them in different places.
Tests used:
neuro2A cells = conditions: for oxaliplatin-induced ROS generation: co-administration with oxaliplatin, 100 μM (first screening), 1–100 μM (second screening), 1 h; for oxaliplatin-induced ROS generation, effect of antioxidants: Supplementary Figure S1; for ROS generation in neuro2A cells by metabolites of oxaliplatin: data not shown
SHSY-5Y cells = test system: SHSY-5Y cells; parameters: method as in PMID 21241762, PMID 19379729, PMID 24263411; conditions: cited from earlier work
[1] = pharmacokinetic study of GJG-derived compounds in rat plasma (LC-MS/MS); type: in vivo; conditions: for time for which the high plasma concentration was maintained: after oral administration of GJG; for time at which maximum plasma concentration (Cmax) was reached: after oral administration of GJG 1.0 g/kg; for Cmax / Tmax: rat plasma after oral GJG 1.0 g/kg, mean ± S.D.
Description: Rats cannulated in the jugular vein were fasted for more than 16 hours with access to water. At the time of 0.083, 0.25, 0.5, 1, 2, 4 and 8 hours after oral administration of GJG (1.0 g/10 mL/kg), blood samples were collected with a heparin-coated syringe and centrifuged at 3000 rpm for 15 minutes at 4 °C. The plasma samples were pretreated by precipitating plasma protein with an organic solvent or by solid-phase extraction and injected into the LC-MS/MS system for analysis. Components of GJG in plasma were measured by a QTRAP®5500 system (AB SCIEX, Tokyo, Japan) equipped with an Agilent 1260 HPLC system (binary pump, online degasser, auto plate-sampler and column oven; Agilent Technologies, Tokyo, Japan). The lower limits for quantification were 0.001 ng/mL for benzoylaconine, benzoylmesaconine, benzoylhypaconine; 0.002 ng/mL for 14-anisoylaconine; 0.2 ng/mL for loganin and morroniside; 0.5 ng/mL for paeoniflorin; and 5 ng/mL for catalpol. Cmax and time to reach maximum plasma concentration (Tmax) as pharmacokinetic parameters were calculated based on the plasma concentration of each compound by Phoenix WinNonlin (version 6.3; Certara L.P., St. Louis, MO, USA).

COC(=O)C1=CO[C@@H](O[C@@H]2O[C@H](CO)[C@@H](O)[C@H](O)[C@H]2O)[C@@H]2[C@H](C)O[C@@H](O)C[C@H]12 [Morroniside, morroniside]
rank of anti-ROS action among active components (neuro2A cells; among LO, MO, PF and 14-AA): strongest action
oxaliplatin-induced ROS generation (neuro2A cells): significantly decreased
ROS production induced by H2O2 or amyloid β 25–35 peptide (SHSY-5Y cells): attenuate ROS production
time for which the high plasma concentration was maintained [1]: 4 h
time at which maximum plasma concentration (Cmax) was reached [1]: 30 min
Cmax ([1]; read-out: Cmax): 53.7 ± 26.9 ng/mL
Tmax ([1]; read-out: Tmax): 40.2 ± 15.6 min

N[C@@H](CCC(=O)N[C@@H](CS)C(=O)NCC(=O)O)C(=O)O [glutathione]
oxaliplatin-induced ROS generation, effect of antioxidants (neuro2A cells): inhibited

COC(=O)C1=CO[C@@H](O[C@@H]2O[C@H](CO)[C@@H](O)[C@H](O)[C@H]2O)[C@@H]2[C@@H](C)[C@@H](O)C[C@H]12 [Loganin, loganin]
oxaliplatin-induced ROS generation (neuro2A cells): significantly decreased
ROS production induced by H2O2 or amyloid β 25–35 peptide (SHSY-5Y cells): attenuate ROS production
time for which the high plasma concentration was maintained [1]: 4 h
time at which maximum plasma concentration (Cmax) was reached [1]: 30 min
Cmax ([1]; read-out: Cmax): 43.7 ± 25.7 ng/mL
Tmax ([1]; read-out: Tmax): 34.8 ± 12 min

[Cl][Pt+2][Cl].[NH-]C1CCCCC1[NH-] (centres unmarked) [Pt(dach)Cl2, dichloro (1,2-diaminocyclohexane) platinum]
ROS generation in neuro2A cells by metabolites of oxaliplatin (neuro2A cells): increased ROS generation

O=C(O)C(=O)O [oxalate]
ROS generation in neuro2A cells by metabolites of oxaliplatin (neuro2A cells): did not

COC[C@@]12CC[C@H](OC)[C@]34C([C@H]([C@H](OC)[C@H]13)[C@]1(O)[C@H]3[C@@H](OC(=O)c5ccccc5)[C@](O)(C[C@H]34)[C@@H](OC)[C@@H]1O)N(C)C2 [Benzoylhypaconine, benzoylhypaconine]
Cmax [1]: 0.013 ± 0.001 ng/mL
Tmax [1]: 30 ± 0 min

C[C@@]12C[C@@]3(O)O[C@@H](O1)[C@]1(COC(=O)c4ccccc4)[C@H]3C[C@@]12O[C@@H]1O[C@H](CO)[C@@H](O)[C@H](O)[C@H]1O [Paeoniflorin, paeoniflorin]
oxaliplatin-induced ROS generation (neuro2A cells): significantly decreased
ROS production induced by H2O2 or amyloid β 25–35 peptide (SHSY-5Y cells): attenuate ROS production
time at which maximum plasma concentration (Cmax) was reached [1]: 30 min
Cmax ([1]; read-out: Cmax): 9.1 ± 1.2 ng/mL
Tmax ([1]; read-out: Tmax): 34.8 ± 12 min

CC(=O)N[C@@H](CS)C(=O)O [N-acetyl cysteine]
oxaliplatin-induced ROS generation, effect of antioxidants (neuro2A cells): inhibited

COC[C@]12CN(C)C3[C@@H]4[C@H](OC)[C@H]1[C@@]3([C@@H](OC)C[C@H]2O)[C@@H]1C[C@@]2(O)[C@H](OC(=O)c3ccccc3)[C@@H]1[C@]4(O)[C@@H](O)[C@@H]2OC [Benzoylmesaconine, benzoylmesaconine]
Cmax [1]: 0.041 ± 0.006 ng/mL
Tmax [1]: 26.4 ± 7.8 min

CCN1C[C@]2(COC)[C@H](O)C[C@H](OC)[C@@]34[C@@H]5C[C@@]6(O)[C@H](OC(=O)c7ccccc7)[C@@H]5[C@@](O)([C@@H]([C@H](OC)[C@H]23)[C@@H]14)[C@@H](O)[C@@H]6OC [Benzoylaconine, benzoylaconine]
Cmax [1]: 0.012 ± 0.002 ng/mL
Tmax [1]: 30 ± 0 min

CCN1C[C@]2(COC)[C@H](O)C[C@H](OC)C34C1C([C@H](OC)[C@@H]32)[C@]1(O)[C@@H]2[C@H]4C[C@@](O)([C@@H]2OC(=O)c2ccc(OC)cc2)[C@@H](OC)[C@@H]1O [14-Anisoylaconine, 14-anisoylaconine]
oxaliplatin-induced ROS generation (neuro2A cells): significantly decreased
Cmax [1]: 0.009 ± 0.000 ng/mL
Tmax [1]: 18.6 ± 7.8 min

OC[C@H]1O[C@@H](O[C@@H]2OC=C[C@H]3[C@H](O)[C@@H]4O[C@]4(CO)[C@@H]23)[C@H](O)[C@@H](O)[C@@H]1O [Catalpol, catalpol]
time for which the high plasma concentration was maintained [1]: 4 h
time at which maximum plasma concentration (Cmax) was reached [1]: 60 min
Cmax ([1]; read-out: Cmax): 282 ± 119 ng/mL
Tmax ([1]; read-out: Tmax): 60 ± 33 min

— paper PMC4635352, “Preventive effect of oral goshajinkigan on chronic oxaliplatin-induced hypoesthesia in rats” (Scientific Reports, 2015)
